According to US20240101576A1, “HETEROCYCLIC INHIBITORS OF EGFR AND/OR HER2, FOR USE IN THE TREATMENT OF CANCER” (Scorpion Therapeutics, Inc., priority 2020, published 2024):

Tests used:
Assay type in all cases: cell-based
[1] = target: T1, EGFR exon 20 ASV Ins V769_D770 (Ba/F3 cells) (Homo sapiens, UniProt P00533, INS769ASV); assay: Inhibitor activity on EGFR-dependent cell growth (CellTiter-Glo, 72 h), Ba/F3 EGFR exon 20 ASV Ins; conditions: read-out: BaF3 ASV IC50
T1 construct: expressed in transfected cells; host or cells: Ba/F3 (murine pro-B cells), retroviral transduction, puromycin selection, IL3-independent pool
T1 sequence (P00533 with tags, fused parts or gaps INS769ASV): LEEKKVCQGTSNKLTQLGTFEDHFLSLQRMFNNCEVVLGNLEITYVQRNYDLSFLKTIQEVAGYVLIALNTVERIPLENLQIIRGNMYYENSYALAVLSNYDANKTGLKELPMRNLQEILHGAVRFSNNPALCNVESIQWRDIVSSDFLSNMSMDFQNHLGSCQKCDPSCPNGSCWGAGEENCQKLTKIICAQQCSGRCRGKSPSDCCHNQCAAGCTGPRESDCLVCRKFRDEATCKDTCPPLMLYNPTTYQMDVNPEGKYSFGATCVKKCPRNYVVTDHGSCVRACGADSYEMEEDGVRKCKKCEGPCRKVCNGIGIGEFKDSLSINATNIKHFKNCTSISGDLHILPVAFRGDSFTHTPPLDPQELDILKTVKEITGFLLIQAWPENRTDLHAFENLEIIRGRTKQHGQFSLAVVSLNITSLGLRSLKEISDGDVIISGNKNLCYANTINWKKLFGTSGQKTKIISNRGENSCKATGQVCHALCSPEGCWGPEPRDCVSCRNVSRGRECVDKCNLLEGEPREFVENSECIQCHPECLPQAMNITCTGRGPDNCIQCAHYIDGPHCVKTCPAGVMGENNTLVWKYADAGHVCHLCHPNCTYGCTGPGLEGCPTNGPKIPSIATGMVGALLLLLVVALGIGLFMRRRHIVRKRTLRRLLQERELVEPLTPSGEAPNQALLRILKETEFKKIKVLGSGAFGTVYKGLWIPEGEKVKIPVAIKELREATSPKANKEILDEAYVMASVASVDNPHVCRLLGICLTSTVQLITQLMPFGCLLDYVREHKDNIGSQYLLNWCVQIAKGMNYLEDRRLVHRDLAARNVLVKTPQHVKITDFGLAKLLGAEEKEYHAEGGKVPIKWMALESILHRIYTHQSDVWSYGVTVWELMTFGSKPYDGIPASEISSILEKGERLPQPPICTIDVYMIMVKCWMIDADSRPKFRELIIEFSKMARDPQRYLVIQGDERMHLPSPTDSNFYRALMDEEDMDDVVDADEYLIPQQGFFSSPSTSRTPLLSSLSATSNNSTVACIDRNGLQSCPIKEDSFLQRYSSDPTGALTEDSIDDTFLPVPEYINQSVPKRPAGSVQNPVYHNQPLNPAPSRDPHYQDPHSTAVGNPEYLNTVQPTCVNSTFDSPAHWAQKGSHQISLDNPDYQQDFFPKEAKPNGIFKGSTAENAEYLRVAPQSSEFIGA
How it was run: (§1)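 IC50s derive from a sigmoidal dose–response fit of CellTiter-Glo signal. The signal was normalised between […]-treated cells and cell-free medium. Ba/F3 mutant-EGFR cells, seeded at 400–800/well depending on the line, had 72 h of exposure to a 10-point, 3-fold compound series.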

[2] = target: T2, EGFR WT (Ba/F3 cells) (Homo sapiens, UniProt P00533); assay: Inhibitor activity on EGFR-dependent cell growth (CellTiter-Glo, 72 h), Ba/F3 EGFR WT; conditions: read-out: BaF3 WT IC50
T2 construct: expressed in transfected cells; host or cells: Ba/F3 (murine pro-B cells), retroviral transduction, puromycin selection, maintained with EGF
How it was run: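 This growth assay used Ba/F3 cells that depend on wild-type EGFR and are kept in EGF without IL3. Compounds were made up as 10 mM DMSO stocks and diluted 3-fold over 10 points. 120 nL went onto 600 cells/well. After 72 hours, 40 μL CellTiter-Glo was added and luminescence read on EnVision after 30 min.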

[3] = target: T3, EGFR exon 20 SVD Ins D770_N771 (Ba/F3 cells) (Homo sapiens, UniProt P00533, INS770SVD); assay: Inhibitor activity on EGFR-dependent cell growth (CellTiter-Glo, 72 h), Ba/F3 EGFR exon 20 SVD Ins; conditions: read-out: BaF3 SVD IC50
T3 construct: expressed in transfected cells; host or cells: Ba/F3 (murine pro-B cells), retroviral transduction, puromycin selection, IL3-independent pool
T3 sequence (P00533 with tags, fused parts or gaps INS770SVD): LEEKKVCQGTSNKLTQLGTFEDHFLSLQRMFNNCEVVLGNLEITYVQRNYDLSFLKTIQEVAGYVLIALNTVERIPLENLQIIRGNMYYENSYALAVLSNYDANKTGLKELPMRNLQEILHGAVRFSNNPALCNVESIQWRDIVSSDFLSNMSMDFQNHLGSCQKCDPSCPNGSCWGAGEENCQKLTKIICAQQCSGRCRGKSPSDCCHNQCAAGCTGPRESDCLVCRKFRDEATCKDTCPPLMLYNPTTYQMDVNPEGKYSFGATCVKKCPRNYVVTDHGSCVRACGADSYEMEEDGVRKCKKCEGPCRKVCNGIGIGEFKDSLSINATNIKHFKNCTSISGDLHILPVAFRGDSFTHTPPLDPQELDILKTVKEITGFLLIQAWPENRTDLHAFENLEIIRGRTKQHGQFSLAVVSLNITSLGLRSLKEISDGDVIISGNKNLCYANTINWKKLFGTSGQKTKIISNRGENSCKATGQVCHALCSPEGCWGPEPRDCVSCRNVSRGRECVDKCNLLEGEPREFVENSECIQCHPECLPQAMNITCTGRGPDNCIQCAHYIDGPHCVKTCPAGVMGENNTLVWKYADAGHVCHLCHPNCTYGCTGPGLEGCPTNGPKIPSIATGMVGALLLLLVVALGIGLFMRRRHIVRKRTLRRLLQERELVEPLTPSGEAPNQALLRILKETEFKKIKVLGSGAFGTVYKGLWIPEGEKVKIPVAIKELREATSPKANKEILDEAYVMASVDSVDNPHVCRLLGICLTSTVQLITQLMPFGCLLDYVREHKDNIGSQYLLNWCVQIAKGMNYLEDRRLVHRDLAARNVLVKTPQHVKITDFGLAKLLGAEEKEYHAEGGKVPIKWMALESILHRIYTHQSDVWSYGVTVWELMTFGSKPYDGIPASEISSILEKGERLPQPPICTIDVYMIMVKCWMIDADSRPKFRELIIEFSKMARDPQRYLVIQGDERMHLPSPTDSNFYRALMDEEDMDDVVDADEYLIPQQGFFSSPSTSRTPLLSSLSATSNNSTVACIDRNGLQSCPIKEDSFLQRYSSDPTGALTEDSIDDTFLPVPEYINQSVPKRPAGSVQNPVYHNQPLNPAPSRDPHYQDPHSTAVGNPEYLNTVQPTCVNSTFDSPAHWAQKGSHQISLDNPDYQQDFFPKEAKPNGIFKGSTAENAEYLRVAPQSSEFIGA
How it was run: as §1

[4] = target: T4, EGFR exon 20 NPG Ins D770_N771 (Ba/F3 cells) (Homo sapiens, UniProt P00533, INS770NPG); assay: Inhibitor activity on EGFR-dependent cell growth (CellTiter-Glo, 72 h), Ba/F3 EGFR exon 20 NPG Ins; conditions: read-out: BaF3 NPG IC50
T4 construct: expressed in transfected cells; host or cells: Ba/F3 (murine pro-B cells), retroviral transduction, puromycin selection, IL3-independent pool
T4 sequence (P00533 with tags, fused parts or gaps INS770NPG): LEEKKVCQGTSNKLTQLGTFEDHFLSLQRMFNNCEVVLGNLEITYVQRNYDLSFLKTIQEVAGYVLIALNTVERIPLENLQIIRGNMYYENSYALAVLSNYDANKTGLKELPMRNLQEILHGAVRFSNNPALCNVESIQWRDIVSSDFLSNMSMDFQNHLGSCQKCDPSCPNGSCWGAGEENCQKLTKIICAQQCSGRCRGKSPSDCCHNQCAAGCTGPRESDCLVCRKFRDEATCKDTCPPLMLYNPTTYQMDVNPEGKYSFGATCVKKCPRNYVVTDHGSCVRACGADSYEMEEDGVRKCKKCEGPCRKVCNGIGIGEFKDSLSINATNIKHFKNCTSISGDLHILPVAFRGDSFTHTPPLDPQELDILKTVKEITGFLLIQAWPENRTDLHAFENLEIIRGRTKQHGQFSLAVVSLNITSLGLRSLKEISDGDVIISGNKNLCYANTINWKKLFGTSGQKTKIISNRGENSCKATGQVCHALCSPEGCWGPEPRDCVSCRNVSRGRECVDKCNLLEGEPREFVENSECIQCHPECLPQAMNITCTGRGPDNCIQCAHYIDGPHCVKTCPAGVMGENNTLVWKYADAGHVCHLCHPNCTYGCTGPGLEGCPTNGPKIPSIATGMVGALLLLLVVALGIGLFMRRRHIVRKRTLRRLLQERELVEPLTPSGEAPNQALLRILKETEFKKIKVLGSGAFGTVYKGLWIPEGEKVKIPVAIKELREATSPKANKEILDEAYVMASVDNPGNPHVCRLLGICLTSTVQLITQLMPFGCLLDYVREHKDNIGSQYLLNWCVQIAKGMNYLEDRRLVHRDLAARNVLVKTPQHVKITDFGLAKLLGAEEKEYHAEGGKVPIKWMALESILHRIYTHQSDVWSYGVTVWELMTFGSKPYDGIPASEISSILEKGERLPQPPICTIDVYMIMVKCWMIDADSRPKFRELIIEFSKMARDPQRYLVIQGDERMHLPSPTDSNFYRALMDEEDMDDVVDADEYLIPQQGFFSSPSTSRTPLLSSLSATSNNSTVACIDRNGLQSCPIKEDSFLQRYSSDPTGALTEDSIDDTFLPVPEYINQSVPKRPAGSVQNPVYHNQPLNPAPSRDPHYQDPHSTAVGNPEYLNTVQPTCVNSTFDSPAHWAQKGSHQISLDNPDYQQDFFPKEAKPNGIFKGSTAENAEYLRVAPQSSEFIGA
Description: Example A. Inhibitor Activity on EGFR-Dependent Cell Growth
Cell lines are generated by transducing Ba/F3 cells with retroviruses containing vectors with EGFR WT, EGFR L858R, EGFR exon 19del, EGFR L858R/C797S, EGFR exon 20 NPG Ins D770_N771, EGFR exon 20 ASV Ins V769_D770, EGFR exon 20 SVD Ins D770_N771, or EGFR exon 20 FQEA Ins A763_V764 genes and a puromycin selection marker. Transduced cells are selected with puromycin for 7 days and are then be transferred into culture media without Interleukin 3 (IL3). EGFR WT cells are maintained with supplemental EGF. Surviving cells are confirmed to express EGFR by Western blot and maintained as a pool. The IC50 date were included in Table 6 and Table 7.
1.1 Cells are harvested from flask into cell culture medium and the cell number counted.
1.2 Cells are diluted with culture medium to the desired density and 40 μL of cell suspension is added into each well of 384-well cell culture plate and the seeding density is 800 (FQEA, exon 19del), 600 (WT, NPG, L858R/C797S), or 400 (ASV, SVD, L858R) cells/well.
2 Compound Preparation and Treatment
2.1 Test compounds are dissolved to 10 mM in a DMSO stock solution. 45 μL of stock solution is transferred to a 384 polypropylene plate (pp-plate). Perform 3-fold, 10-point dilution via transferring 15 μL compound into 30 μL DMSO using a TECAN (EVO200) liquid handler.
2.2 Spin plates at room temperature at 1,000 RPM for 1 minute.
2.3 Transfer 120 nL of diluted compound from compound source plate into the cell plate.
2.4 After compound treatment for 72 hours, perform CTG detection for compound treatment plates as described in “Detection” section.
3.1 Plates are removed from incubators and equilibrated at room temperature for 15 minutes.
3.2 Thaw the CellTiter Glo reagents and allow to equilibrate to room temperature before the experiment.
3.3 Add 40 μL of CellTiter-Glo reagent into each well (at 1:1 to culture medium). Then place the plates at room temperature for 30 min followed by reading on EnVision.
4.1 Inhibition activity is calculated following the formula below:
% Inhibition=100×(LumHC−LumSample)/(LumHC−LumLC) • where HC is obtained from cells treated with 0.1% DMSO only; and LC is obtained from culture medium only.
4.2 2. Calculate the IC50 by fitting the Curve using Xlfit (v5.3.1.3), equation 201.
Y=Bottom+(Top−Bottom)/(1+10^((Log IC50−X)*HillSlope))

[5] = target: T5, EGFR exon 20 FQEA Ins A763_V764 (Ba/F3 cells) (Homo sapiens, UniProt P00533, INS763FQEA); assay: Inhibitor activity on EGFR-dependent cell growth (CellTiter-Glo, 72 h), Ba/F3 EGFR exon 20 FQEA Ins; conditions: read-out: BaF3 FQEA IC50
T5 construct: expressed in transfected cells; host or cells: Ba/F3 (murine pro-B cells), retroviral transduction, puromycin selection, IL3-independent pool
T5 sequence (P00533 with tags, fused parts or gaps INS763FQEA): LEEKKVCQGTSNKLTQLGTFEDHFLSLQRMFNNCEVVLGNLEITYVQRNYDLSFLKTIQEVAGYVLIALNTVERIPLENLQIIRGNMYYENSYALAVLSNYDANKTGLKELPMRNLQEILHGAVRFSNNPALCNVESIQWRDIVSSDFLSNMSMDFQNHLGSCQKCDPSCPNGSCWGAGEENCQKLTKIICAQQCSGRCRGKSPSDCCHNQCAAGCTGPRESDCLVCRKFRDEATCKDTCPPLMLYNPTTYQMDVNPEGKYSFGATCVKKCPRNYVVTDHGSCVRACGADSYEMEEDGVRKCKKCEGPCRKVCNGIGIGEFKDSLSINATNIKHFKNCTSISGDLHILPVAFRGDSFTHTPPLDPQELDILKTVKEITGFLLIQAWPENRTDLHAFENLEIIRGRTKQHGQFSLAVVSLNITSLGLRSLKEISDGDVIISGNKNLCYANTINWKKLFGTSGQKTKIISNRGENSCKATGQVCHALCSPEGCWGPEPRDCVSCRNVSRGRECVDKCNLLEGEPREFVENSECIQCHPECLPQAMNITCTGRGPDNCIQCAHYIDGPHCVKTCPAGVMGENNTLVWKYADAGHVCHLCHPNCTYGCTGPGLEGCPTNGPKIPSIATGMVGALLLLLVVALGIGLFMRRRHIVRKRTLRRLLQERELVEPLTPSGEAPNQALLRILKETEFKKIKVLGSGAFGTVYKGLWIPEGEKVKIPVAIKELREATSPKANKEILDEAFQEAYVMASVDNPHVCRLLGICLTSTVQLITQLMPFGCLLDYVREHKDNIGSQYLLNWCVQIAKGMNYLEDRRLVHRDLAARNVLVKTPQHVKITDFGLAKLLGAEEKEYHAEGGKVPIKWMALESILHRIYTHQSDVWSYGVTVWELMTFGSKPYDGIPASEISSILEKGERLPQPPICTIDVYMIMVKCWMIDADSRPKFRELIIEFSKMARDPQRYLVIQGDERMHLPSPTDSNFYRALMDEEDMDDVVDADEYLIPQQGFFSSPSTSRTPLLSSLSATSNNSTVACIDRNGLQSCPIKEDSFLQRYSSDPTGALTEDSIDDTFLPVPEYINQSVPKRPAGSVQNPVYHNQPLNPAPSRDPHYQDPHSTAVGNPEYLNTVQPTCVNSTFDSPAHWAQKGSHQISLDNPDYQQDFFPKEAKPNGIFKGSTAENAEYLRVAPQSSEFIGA
How it was run: as §1

In the case of `COC(=O)N1CCC2(CNC(=O)c3c2[nH]c(-c2ccncc2F)c3Nc2cccc(Cl)c2OC)C1` (single isomer, unassigned) [Compound 497], the IC50 [1] is reported as 0.1 to 1 µM, the IC50 [2] is reported as 0.1 to 1 µM and the IC50 [3] is reported as 0.1 to 1 µM. The IC50 [4] was under 0.1 µM.

Molecule `COc1c(Cl)cccc1Nc1c(-c2ccncc2F)[nH]c2c1C(=O)NCC2C[C@@H]1CO[C@@H](CN(C)C)CO1` (single isomer, unassigned) [Compound 563, (7R*)-3-[(3-chloro-2-methoxyphenyl)amino]-7-{[(2R,5S)-5-[(dimethylamino)methyl]-1,4-dioxan-2-yl]methyl}-2-(3-fluoropyridin-4-yl)-1H,5H,6H,7H-pyrrolo[3,2-c]pyridin-4-one] has an IC50 [1] of 0.1 to 1 µM, an IC50 [2] of over 1 µM and an IC50 [3] of 0.1 to 1 µM. For the same molecule, the IC50 [4] was 0.1 to 1 µM.

Work on `COc1c(Cl)cccc1Nc1c(-c2ccncc2F)[nH]c2c1C(=O)NCC2C[C@H]1CO[C@H](CN(C)C)CO1` (single isomer, unassigned) [Compound 564, (7R*)-3-[(3-chloro-2-methoxyphenyl)amino]-7-{[(2S,5R)-5-[(dimethylamino)methyl]-1,4-dioxan-2-yl]methyl}-2-(3-fluoropyridin-4-yl)-1H,5H,6H,7H-pyrrolo[3,2-c]pyridin-4-one] yielded an IC50 [1] of 0.1 to 1 µM, an IC50 [2] of over 1 µM and an IC50 [3] of 0.1 to 1 µM. The IC50 [4] was 0.1 to 1 µM.

`COc1c(Cl)cccc1Nc1c(-c2ccncn2)[nH]c2c1C(=O)NCC2C[C@H]1COCCO1` (single isomer, unassigned) [Compound 574, (7R*)-3-[(3-chloro-2-methoxyphenyl)amino]-7-[(2S)-1,4-dioxan-2-ylmethyl]-2-(pyrimidin-4-yl)-1H,5H,6H,7H-pyrrolo[3,2-c]pyridin-4-one] showed an IC50 [2] of over 1 µM and an IC50 [4] of under 0.1 µM.

Molecule `COc1c(F)cccc1Nc1c(-c2ccnc(C)n2)[nH]c2c1C(=O)NCC2C[C@H]1COCCO1` (single isomer, unassigned) [Compound 603] has an IC50 [1] of under 0.1 µM, an IC50 [2] of over 1 µM and an IC50 [3] of under 0.1 µM. The IC50 [4] was under 0.1 µM.

In the case of `COc1c(F)cccc1Nc1c(-c2ccnc(C)n2)[nH]c2c1C(=O)NCC2C[C@@H]1COCCO1` (single isomer, unassigned) [Compound 605], the IC50 [1] is reported as 0.1 to 1 µM, the IC50 [2] is reported as over 1 µM and the IC50 [3] is reported as 0.1 to 1 µM. It also gave an IC50 [4] of 0.1 to 1 µM.

`C=CC(=O)N1CCC2(CC1)CNC(=O)c1c2[nH]c(-c2ccnc(N)n2)c1Nc1cccc(F)c1OC` [Compound 162, 1-acryloyl-2′-(2-aminopyrimidin-4-yl)-3′-((3-fluoro-2-methoxyphenyl)amino)-5′,6′-dihydrospiro[piperidine-4,7′-pyrrolo[3,2-c]pyridin]-4′(1′H)-one] showed an IC50 [1] of under 0.1 µM, an IC50 [2] of 0.1 to 1 µM and an IC50 [3] of 0.1 to 1 µM. The IC50 [4] was 0.1 to 1 µM.

`C=CC(=O)N1CCC2(CC1)CNC(=O)c1c2[nH]c(-c2ccncn2)c1Nc1cccc(Cl)c1OC` [Compound 478, 3′-[(3-chloro-2-methoxyphenyl)amino]-1-(prop-2-enoyl)-2′-(pyrimidin-4-yl)-5′,6′-dihydro-1′H-spiro[piperidine-4,7′-pyrrolo[3,2-c]pyridin]-4′-one] was tested, and the IC50 [1] was under 0.1 µM, the IC50 [2] was under 0.1 µM and the IC50 [3] was under 0.1 µM. It also gave an IC50 [4] of under 0.1 µM.

For `COC(=O)N1CC2(CNC(=O)c3c2[nH]c(-c2ccncc2F)c3Nc2cccc(Cl)c2OC)C1` [Compound 490, methyl 3′-[(3-chloro-2-methoxyphenyl)amino]-2′-(3-fluoropyridin-4-yl)-4′-oxo-5′,6′-dihydro-1′H-spiro[azetidine-3,7′-pyrrolo[3,2-c]pyridine]-1-carboxylate], the IC50 [1] was over 1 µM, the IC50 [2] was over 1 µM and the IC50 [3] was over 1 µM. For the same molecule, the IC50 [4] was over 1 µM.

`COC(=O)N1CC[C@@]2(CNC(=O)c3c2[nH]c(-c2ccncc2F)c3Nc2cccc(Cl)c2OC)C1` [Compound 498, methyl (3R)-3′-[(3-chloro-2-methoxyphenyl)amino]-2′-(3-fluoropyridin-4-yl)-4′-oxo-5′,6′-dihydro-1′H-spiro[pyrrolidine-3,7′-pyrrolo[3,2-c]pyridine]-1-carboxylate] gave an IC50 [1] of over 1 µM, an IC50 [2] of over 1 µM and an IC50 [3] of over 1 µM. The IC50 [4] was 0.1 to 1 µM.

In the case of `CNC(=O)N1CC[C@@]2(CNC(=O)c3c2[nH]c(-c2ccncc2F)c3Nc2cccc(Cl)c2OC)C1` [Compound 499, (3R)-3′-[(3-chloro-2-methoxyphenyl)amino]-2′-(3-fluoropyridin-4-yl)-N-methyl-4′-oxo-5′,6′-dihydro-1′H-spiro[pyrrolidine-3,7′-pyrrolo[3,2-c]pyridine]-1-carboxamide], the IC50 [1] is reported as over 1 µM, the IC50 [2] is reported as over 1 µM and the IC50 [3] is reported as over 1 µM. For the same molecule, the IC50 [4] was over 1 µM.

`CNC(=O)N1CC[C@]2(CNC(=O)c3c2[nH]c(-c2ccncc2F)c3Nc2cccc(Cl)c2OC)C1` [Compound 500, (3S)-3′-[(3-chloro-2-methoxyphenyl)amino]-2′-(3-fluoropyridin-4-yl)-N-methyl-4′-oxo-5′,6′-dihydro-1′H-spiro[pyrrolidine-3,7′-pyrrolo[3,2-c]pyridine]-1-carboxamide] showed an IC50 [1] of over 1 µM, an IC50 [2] of over 1 µM and an IC50 [3] of over 1 µM. For the same molecule, the IC50 [4] was over 1 µM.

Work on `COc1c(Cl)cccc1Nc1c(-c2ccncn2)[nH]c2c1C(=O)NC[C@@H]2C[C@@H]1COCCO1` [Compound 528, (7S)-3-[(3-chloro-2-methoxyphenyl)amino]-7-[(2R)-1,4-dioxan-2-ylmethyl]-2-(pyrimidin-4-yl)-1H,5H,6H,7H-pyrrolo[3,2-c]pyridin-4-one] yielded an IC50 [2] of over 1 µM and an IC50 [4] of under 0.1 µM.

`COCCOc1cncnc1-c1[nH]c2c(c1Nc1cccc(F)c1OC)C(=O)NCC2` [Compound 676, 3-[(3-fluoro-2-methoxyphenyl)amino]-2-[5-(2-methoxyethoxy)pyrimidin-4-yl]-1H,5H,6H,7H-pyrrolo[3,2-c]pyridin-4-one] was tested, and the IC50 [2] was over 1 µM and the IC50 [4] was over 1 µM.

`COc1c(Cl)cccc1Nc1c(-c2ccncc2F)[nH]c2c1C(=O)NC[C@@]21CCN(C)C1` [compound 816] gave an IC50 [1] of 0.1 to 1 µM, an IC50 [2] of over 1 µM and an IC50 [5] of 0.1 to 1 µM. It also gave an IC50 [3] of 0.1 to 1 µM.

Work on `COc1c(Cl)cccc1Nc1c(-c2ccncc2F)[nH]c2c1C(=O)NC[C@]21CCN(CC(F)(F)F)C1` [compound 818] yielded an IC50 [1] of 0.1 to 1 µM, an IC50 [2] of over 1 µM and an IC50 [5] of 0.1 to 1 µM. For the same molecule, the IC50 [3] was 0.1 to 1 µM.

Molecule `COCC[C@H]1CNC(=O)c2c1[nH]c(-c1ccncc1F)c2Nc1cccc(F)c1C` [compound 824] has an IC50 [1] of 0.1 to 1 µM, an IC50 [2] of over 1 µM and an IC50 [5] of 0.1 to 1 µM. The IC50 [3] was 0.1 to 1 µM.

`COc1ccc2ncc(F)c(-c3[nH]c4c(c3Nc3cccc(Cl)c3OC)C(=O)NCC4)c2n1` [compound 829, 3-[(3-chloro-2-methoxyphenyl)amino]-2-(3-fluoro-6-methoxy-1,5-naphthyridin-4-yl)-1H,5H,6H,7H-pyrrolo[3,2-c]pyridin-4-one] gave an IC50 [1] of over 1 µM, an IC50 [2] of over 1 µM and an IC50 [5] of over 1 µM. It also gave an IC50 [3] of over 1 µM.
